Broadly, the IC50 is the point on the concentration scale where inhibition reaches its midpoint. A higher IC50 goes with lower potency.

Some results are limits rather than exact numbers.

The target of the first assay is Procathepsin L (Homo sapiens, UniProt P07711). As to the kind of experiment: FRET-based enzymatic assay.
Procathepsin L, sequence (P07711 whole entry): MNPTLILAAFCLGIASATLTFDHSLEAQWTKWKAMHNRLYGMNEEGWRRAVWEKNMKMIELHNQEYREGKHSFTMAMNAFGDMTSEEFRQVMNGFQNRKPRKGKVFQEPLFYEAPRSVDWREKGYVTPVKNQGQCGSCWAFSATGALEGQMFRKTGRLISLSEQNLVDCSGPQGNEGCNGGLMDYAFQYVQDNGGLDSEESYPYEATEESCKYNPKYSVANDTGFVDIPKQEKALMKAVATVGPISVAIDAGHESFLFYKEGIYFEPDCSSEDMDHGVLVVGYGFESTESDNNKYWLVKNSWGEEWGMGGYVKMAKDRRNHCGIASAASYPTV
For the compound `CC(C)C[C@H](NC(=O)OCc1ccccc1)C(=O)N[C@@H](CC1CCNC1=O)C(O)S(=O)(=O)O` (stereo not given in full) [GC376], the midpoint of inhibition, the IC50, lay at 0.99 nM. The same measure, in the same setting: the same measure for `COc1cccc2[nH]c(C(=O)N[C@@H](CC(C)C)C(=O)N[C@@H](C[C@@H]3CCNC3=O)C(=O)CO)cc12` [WO2005113580-Ex-02]: 146 nM; for `CC(OC(C)(C)C)[C@H](NC(=O)OCc1ccccc1)C(=O)N[C@@H](CC1CCCCC1)C(=O)N[C@H](C=O)C[C@@H]1CCNC1=O` (stereo not given in full) [jm5b01461, Compound 45]: 1.2 nM.

For another assay, the target named is Replicase polyprotein 1ab (Severe acute respiratory syndrome coronavirus 2, UniProt P0DTD1). As to the kind of experiment: FRET-based enzymatic assay.
`CCCCC1CCC(OC(=O)N[C@@H](CC(C)C)C(=O)N[C@H](C=O)C[C@@H]2CCNC2=O)CC1` (stereo not given in full) [Advanced SARS-CoV-2 Inhibitor 6e] returned an IC50 of 10 nM. Still for that read-out and setting: for `C=CC(=O)N(c1ccc(-c2ccccc2)cc1)C(C(=O)N[C@@H](C)c1ccccc1)c1cccnc1` (stereo not given in full) [Jun9-51-3] the value was > 20000 nM.

As for `O=C(NC1CCCC1)C(c1cccnc1)N(C(=O)CCl)c1ccc(-c2ccccc2)cc1` (stereo not given) [Jun9-55-1], the midpoint of inhibition, the IC50, lay at 300 nM. The same measure, in the same setting: the same measure for `O=C(NC1CCCCC1)C(c1cccnc1)N(C(=O)CCl)c1ccc(-c2ccccc2)cc1` (stereo not given) [Jun9-55-2]: 330 nM; for `O=C(NC1CC1)C(c1cccnc1)N(C(=O)CCl)c1ccc(-c2ccccc2)cc1` (stereo not given) [Jun9-57-2]: 220 nM.

Compound `C[C@H](NC(=O)[C@@H](c1cnccn1)N(C(=O)CCl)c1ccc(-c2ccccc2)cc1)c1ccccc1` [Jun9-57-3R] registered a 50% inhibitory concentration (IC50) of 50 nM. The same measure, in the same setting: for `C[C@H](NC(=O)C(c1cnccn1)N(C(=O)CCl)c1ccc(-c2ccccc2)cc1)c1ccccc1` (stereo not given in full) [Jun9-59-1] the value was 120 nM; for `C[C@H](NC(=O)C(c1cccnc1)N(C(=O)CN=[N+]=[N-])c1ccc(-c2ccccc2)cc1)c1ccccc1` (stereo not given in full) [Jun9-61-1], > 20000 nM.

As to `C[C@H](NC(=O)C(c1cccnc1)N(C(=O)CF)c1ccc(-c2ccccc2)cc1)c1ccccc1` (stereo not given in full) [Jun9-61-4], the IC50 is > 20000 nM.

`CCOC(=O)/C=C/C(=O)N(c1ccc(-c2ccccc2)cc1)C(C(=O)N[C@@H](C)c1ccccc1)c1cccnc1` (stereo not given in full) [Jun9-72-3]: the IC50 was > 20000 nM. The same measure, in the same setting: the same measure for `C[C@H](NC(=O)C(c1cccnc1)N(C(=O)C(Cl)(Cl)Cl)c1ccc(-c2ccccc2)cc1)c1ccccc1` (stereo not given in full) [Jun9-72-4]: > 20000 nM. `C[C@H](NC(=O)C(c1cccnc1)N(C(=O)C(C)(Cl)Cl)c1ccc(-c2ccccc2)cc1)c1ccccc1` (stereo not given in full) [Jun9-76-4]: the IC50 is > 20000 nM. On to `C[C@H](Cl)C(=O)N(c1ccc(-c2ccccc2)cc1)C(C(=O)N[C@@H](C)c1ccccc1)c1cccnc1` (stereo not given in full) [Jun9-77-1], for which the IC50 was > 20000 nM. The same measure, in the same setting: the same measure for `C[C@H](NC(=O)C(c1cccnc1)N(C(=O)C(F)(F)Cl)c1ccc(-c2ccccc2)cc1)c1ccccc1` (stereo not given in full) [Jun9-77-2]: > 20000 nM; for `C[C@H](NC(=O)[C@@H](c1cccnc1)N(C(=O)C(Br)Br)c1ccc(-c2ccccc2)cc1)c1ccc(Br)cc1` [Jun9-89-2R]: 80 nM; for `C=CC(=O)N(c1ccc(-c2ccccc2)cc1)C(C(=O)NCc1ccccc1)c1cccnc1` (stereo not given) [Jun10-15-2]: > 20000 nM. Same read-out and setting: for `C[C@H](NC(=O)C(c1cccnc1)N(C(=O)/C=C/CN(C)C)c1ccc(-c2ccccc2)cc1)c1ccccc1` (stereo not given in full) [Jun10-31-4] the value was > 20000 nM.

The values above are taken from BindingDB's records for doi:10.1021/jacs.1c08060 (The University of Arizona, 2021).
